Results from ChEMBL document CHEMBL1148845, “Chiral tetrahydroquinoline derivatives as potent anti-hyperalgesic agents in animal models of sustained inflammation and chronic neuropathic pain” (Bioorg Med Chem Lett, 2007).
Activity calls are given as the source filed them. No cut-off for these calls is given here.

How the values were obtained:
[1] = biological target: Glutamate NMDA receptor; assay: Displacement of [3H]glycine from NMDA receptor in rat cerebral cortex membrane; format: cell membranes
[2] = tested on: Mus musculus; assay: Antinociceptive effect in po dosed mouse assessed as reduction of licking time in late phase by formalin test; format: functional
[3] = tested on: Rattus norvegicus; assay: Analgesic effect in po dosed CCI rat model assessed as reduction of thermal hyperalgesia after 1 hr; format: functional
[4] = tested on: Mus musculus; assay: Antinociceptive effect in ip dosed mouse assessed as reduction of licking time in late phase administered before 30 mins of formalin administration; settings: 0.5 h
[5] = tested on: Mus musculus; assay: Antinociceptive effect in ip dosed mouse assessed as reduction of licking time in early phase administered before 30 mins of formalin administration; settings: 0.5 h
[6] = Oral bioavailability in dog at 3 mg/kg, po; format: ADME, organism-based, Canis lupus familiaris; settings: in vivo
[7] = Oral bioavailability in rat at 3 mg/kg, po; format: ADME, organism-based; settings: in vivo
[8] = Plasma clearance in dog at 1 mg/kg, iv or 3 mg/kg, po; format: ADME, organism-based, Canis lupus familiaris
[9] = Plasma clearance in rat at 1 mg/kg, iv or 3 mg/kg, po; format: ADME, organism-based
[10] = Half life in dog at 1 mg/kg, iv or 3 mg/kg, po; format: ADME, organism-based, Canis lupus familiaris; settings: in vivo
[11] = Half life in rat at 1 mg/kg, iv or 3 mg/kg, po; format: ADME, organism-based; settings: in vivo
[12] = organism: Rattus norvegicus; assay: Inhibition of windup in rat spinal cord at 10 uM; format: functional, organism-based
[13] = Oral bioavailability in rat; format: ADME, organism-based; settings: in vivo
[14] = tested on: Mus musculus; assay: Antinociceptive effect in mouse assessed as reduction of licking time in late phase administered at 0.1 mg/kg, ip before 10 mins of formalin administration; format: functional; design: scale not given: the % may be the effect or the level left; settings: route intraperitoneal

With `O=C([O-])c1[nH]c2cc(Cl)cc(Cl)c2c1/C=C1\CCN(c2ccccc2)C1=O.[Na+]` the “Log Ki” value [1] was -7.56, the ED50 [2] was 0.6 mg/kg and the ED50 [3] was 2.95 mg/kg.

`CN1CC[C@]23c4c5ccc(O)c4O[C@H]2[C@@H](O)C=C[C@H]3[C@H]1C5` [MORPHINE] showed an ED50 [4] of 0.56 mg/kg and an ED50 [5] of 0.73 mg/kg.

With `O=C(/C=C1\CC(C(=O)[O-])Nc2cc(Cl)ccc21)Nc1ccccc1.[Na+]` (stereo unspecified) the “Log Ki” value [1] was -7.42, the bioavailability [6] was 64% and the bioavailability [7] was 85%. The clearance [8] was 1.4 mL/min/kg, the clearance [9] was 3.5 mL/min/kg and the half-life [10] was 144 min. For the same molecule, the half-life [11] was 84 min.

With `O=C([O-])C1C/C(=C2/CC(=O)N(c3ccccc3)C2=O)c2ccc(Cl)cc2N1.[Na+]` (stereo unspecified) the “Log Ki” value [1] was -5.64.

With `O=C([O-])[C@H]1C/C(=C2/CCN(c3ccccc3)C2=O)c2ccc(Cl)cc2N1.[Na+]` the ED50 [2] was 0.14 mg/kg, the ED50 [3] was 0.14 mg/kg and the Activity [12] was “Active”.

`O=C([O-])C1C/C(=C2/CCN(c3ccccc3)C2=O)c2ccc(Cl)cc2N1.[Na+]` (stereo unspecified) gave a bioavailability [13] of 76%.

For `C[C@]12N[C@H](Cc3ccccc31)c1ccccc12` [DIZOCILPINE], the ED50 [2] was 0.1 mg/kg and the Activity [14] was 50%.

With `O=C([O-])C1C/C(=C2/NC(=O)N(c3ccccc3)C2=O)c2ccc(Cl)cc2N1.[Na+]` (stereo unspecified) the “Log Ki” value [1] was -7.8.

For `O=C([O-])C1C/C(=C2/CCCN(c3ccccc3)C2=O)c2ccc(Cl)cc2N1.[Na+]` (stereo unspecified), the “Log Ki” value [1] was -5.71.
